Experimental data as given in patent US20210138025A1, “CATIONIC PEPTIDES WITH IMMUNOMODULATORY AND/OR ANTI-BIOFILM ACTIVITIES” (priority 2018, published 2021).
≈ marks a conversion by molar mass, not a printed value. Non-standard residues stand in square brackets, D forms with d. Residues, ends and D or L forms follow the SMILES beside them.

Experiments:
Type in all cases: cell-based
T-lymphocytes [1] = experiment: Anti-inflammatory activity towards stimulated T-lymphocytes, bovine (Table 25); details: Bovine T-cells, 32 μg/ml of peptide
T-lymphocytes [2] = experiment: Cytokine production in T-lymphocytes, canine (Table 24); details: no additional stimulant, background (NONE) subtracted
S. aureus (Sau) [3] = details: Sau
monocytes [4] = experiment: Cytokine production in unstimulated monocytes, bovine (Table 22); details: background subtracted
Procedure: (§1) A subset of peptides was tested for stimulation of cytokine production in monocytes (Table 22). For the tested cytokines, the peptides tended to show anti-inflammatory activity rather than […] activity.

T-lymphocytes [5] = experiment: Cytokine production in T-lymphocytes, bovine (Table 24); details: no additional stimulant, background (NONE) subtracted
E. coli (Ec) [6] = details: Ec
E. coli (Ec) [7] = details: Ec; remark: listed apart in the source
S. aureus (Sau) [8] = details: Sau; remark: listed apart in the source
LPS stimulated monocytes = experiment: Anti-inflammatory activity in LPS stimulated monocytes, bovine (Table 23); details: 32 μg/ml peptide, negative = increase
CCL5 [9] = experiment: CCL5 production by peptide alone and in presence of Con A, canine cells (Table 21); details: peptide 32 μg/ml
Procedure: (§2) A subset of peptides was tested for stimulation of the chemokine CCL5 (Table 21).

monocytes [10] = experiment: Cytokine production in unstimulated monocytes, canine (Table 22); details: background subtracted
Procedure: as §1

[11] = test system: Bordatella bronchiseptica (Bb)
Procedure: (§3) The same strains as in Table 18 were assessed for Minimal Biofilm Inhibitory Concentrations (MBIC) (Table 19). Italics=excellent activity (less than or equal to 4 μg/ml). ND=Not determined. Peptides 3013, 3015 and 3016 inhibited biofilm growth in the largest number of bacterial strains (5, 5 and 6 out of 13 strains, respectively).

[12] = test system: Staphylococcus epidermidis (Se)
Procedure: as §3

Streptococcus suis (Ss) [13] = test system: Streptococcus suis (Ss)
Procedure: as §3

[14] = test system: Pseudomonas aeruginosa (Pa)
Procedure: as §3

[15] = test system: Pasteurella multocida (Pm)
Procedure: as §3

[16] = test system: Streptococcus uberis (Su)
Procedure: as §3

[17] = test system: Streptococcus dysgalactiae (Sd)
Procedure: as §3

Histophilus somnus (Hs) [18] = test system: Histophilus somnus (Hs)
Procedure: as §3

[19] = test system: Mannheimia haemolytica (Mh)
Procedure: as §3

[20] = test system: Staphylococcus pseudintermedius (Sp)
Procedure: as §3

[21] = test system: Streptococcus agalactiae (Sa)
Procedure: as §3

CCL5 [22] = experiment: CCL5 production by peptide alone and in presence of LPS, bovine cells (Table 21); details: peptide 32 μg/ml
Procedure: as §2

T-lymphocytes [23] = experiment: Anti-inflammatory activity towards stimulated T-lymphocytes, canine (Table 25); details: Canine T-cells, 32 μg/ml of peptide
[24] = test system: ConA stimulated monocytes; experiment: Anti-inflammatory activity in ConA stimulated monocytes, canine (Table 23); details: 32 μg/ml peptide, negative = increase
[25] = test system: Bordatella bronchiseptica (Bb); remark: listed apart in the source
Procedure: (§4) The following strains were assessed vs. Staphylococcus epidermidis (Se), Pseudomonas aeruginosa (Pa), Streptococcus dysgalactiae (Sd), Pasteurella multocida (Pm), Streptococcus agalactiae (Sa), Streptococcus uberis (Su), Streptococcus suis (Ss), Mannheimia haemolytica (Mh), Bordatella bronchiseptica (Bb), Histophilus somnus (Hs), and Staphylococcus pseudintermedius (Sp) (Table 18) for Minimal Inhibitory Concentrations (MIC). Italics=excellent activity (less than or equal to 4 μg/ml).

[26] = test system: Staphylococcus epidermidis (Se); remark: listed apart in the source
Procedure: as §4

Streptococcus suis (Ss) [27] = test system: Streptococcus suis (Ss); remark: listed apart in the source
Procedure: as §4

[28] = test system: Pseudomonas aeruginosa (Pa); remark: listed apart in the source
Procedure: as §4

[29] = test system: Pasteurella multocida (Pm); remark: listed apart in the source
Procedure: as §4

[30] = test system: Streptococcus uberis (Su); remark: listed apart in the source
Procedure: as §4

[31] = test system: Streptococcus dysgalactiae (Sd); remark: listed apart in the source
Procedure: as §4

Histophilus somnus (Hs) [32] = test system: Histophilus somnus (Hs); remark: listed apart in the source
Procedure: as §4

[33] = test system: Mannheimia haemolytica (Mh); remark: listed apart in the source
Procedure: as §4

[34] = test system: Staphylococcus pseudintermedius (Sp); remark: listed apart in the source
Procedure: as §4

[35] = test system: Streptococcus agalactiae (Sa); remark: listed apart in the source
Procedure: as §4

For CC[C@@H](C)[C@@H](NC(=O)[C@@H](C)NC(=O)[C@@H](CCCNC(=N)N)NC(=O)[C@@H](Cc1c[nH]c2ccccc12)NC(=O)[C@@H](CCC(N)=O)NC(=O)[C@H](N)C(C)C)C(=O)N[C@H](CCCNC(=N)N)C(=O)N[C@@H](C(=O)N[C@H](CCCNC(=N)N)C(=O)N[C@@H](C(=O)N[C@@H](C(=O)N[C@H](CCCNC(=N)N)C(N)=O)[C@H](C)CC)C(C)C)C(C)C [DJK5, VQWRAIRVRVIR] (H-[dV][dQ][dW][dR][dA][dI][dR][dV][dR][dV][dI][dR]-NH2; N-terminus and C-terminus assumed), the “% Cytokine decrease in the presence of LPS/ConA: IFNγ” value (T-lymphocytes [1]) was 34.9%, the “% Cytokine decrease in the presence of LPS/ConA: IL-2” value (T-lymphocytes [1]) was 80.7% and the “% Cytokine decrease in the presence of LPS/ConA: IL-4” value (T-lymphocytes [1]) was 37.7%. For the same molecule, the “% Cytokine decrease in the presence of LPS/ConA: IL-6” value (T-lymphocytes [1]) was −16.4%, the “% Cytokine decrease in the presence of LPS/ConA: IL-13” value (T-lymphocytes [1]) was 85.3% and the “% Cytokine decrease in the presence of LPS/ConA: TNFα” value (T-lymphocytes [1]) was 38.2%. For the same molecule, the “Concentration of T-cell cytokines in the absence of additional stimulant: IFNγ” value (T-lymphocytes [2]) was 11 pg/mL, the “Concentration of T-cell cytokines in the absence of additional stimulant: IL-2” value (T-lymphocytes [2]) was 13 pg/mL and the “Concentration of T-cell cytokines in the absence of additional stimulant: IL-4” value (T-lymphocytes [2]) was 71 pg/mL. For the same molecule, the “Concentration of T-cell cytokines in the absence of additional stimulant: IL-6” value (T-lymphocytes [2]) was 149 pg/mL, the “Concentration of T-cell cytokines in the absence of additional stimulant: IL-13” value (T-lymphocytes [2]) was -100 pg/mL and the “Concentration of T-cell cytokines in the absence of additional stimulant: TNFα” value (T-lymphocytes [2]) was -46 pg/mL. The “MIC S. aureus” value (S. aureus (Sau) [3]) was 2 µg/mL (≈ 1.29 µM), the “MIC Sau” value (S. aureus (Sau) [3]) was 2 µg/mL (≈ 1.29 µM) and the “Concentration of Monocyte cytokine IFNγ in absence of additional stimulant” value (monocytes [4]) was -3 pg/mL. For the same molecule, the “Concentration of Monocyte cytokine IL-2 in absence of additional stimulant” value (monocytes [4]) was -103 pg/mL, the “Concentration of Monocyte cytokine IL-4 in absence of additional stimulant” value (monocytes [4]) was -196 pg/mL and the “Concentration of Monocyte cytokine IL-6 in absence of additional stimulant” value (monocytes [4]) was 75 pg/mL. For the same molecule, the “Concentration of Monocyte cytokine IL-13 in absence of additional stimulant” value (monocytes [4]) was 294 pg/mL, the “Concentration of Monocyte cytokine TNFα in absence of additional stimulant” value (monocytes [4]) was -218 pg/mL and the “Concentration of T-cell cytokines in the absence of additional stimulant: IFNγ” value (T-lymphocytes [5]) was -12 pg/mL. For the same molecule, the “Concentration of T-cell cytokines in the absence of additional stimulant: IL-2” value (T-lymphocytes [5]) was -66 pg/mL, the “Concentration of T-cell cytokines in the absence of additional stimulant: IL-4” value (T-lymphocytes [5]) was -73 pg/mL and the “Concentration of T-cell cytokines in the absence of additional stimulant: IL-6” value (T-lymphocytes [5]) was -92 pg/mL. For the same molecule, the “Concentration of T-cell cytokines in the absence of additional stimulant: IL-13” value (T-lymphocytes [5]) was 178 pg/mL, the “Concentration of T-cell cytokines in the absence of additional stimulant: TNFα” value (T-lymphocytes [5]) was 113 pg/mL and the “MIC E. coli” value (E. coli (Ec) [6]) was under 1 µg/mL. For the same molecule, the “MIC Ec” value (E. coli (Ec) [6]) was under 1 µg/mL, the MBIC (E. coli (Ec) [7]) was under 1 µg/mL and the “MBIC E. coli” value (E. coli (Ec) [7]) was under 1 µg/mL. For the same molecule, the MBIC (S. aureus (Sau) [8]) was under 1 µg/mL, the “MBIC S. aureus” value (S. aureus (Sau) [8]) was under 1 µg/mL and the “% Monocyte cytokine decrease in presence of LPS/ConA, IFNγ” value (LPS stimulated monocytes) was 31.6%. For the same molecule, the “% Monocyte cytokine decrease in presence of LPS/ConA, IL-2” value (LPS stimulated monocytes) was 34.0%, the “% Monocyte cytokine decrease in presence of LPS/ConA, IL-4” value (LPS stimulated monocytes) was 3.9% and the “% Monocyte cytokine decrease in presence of LPS/ConA, IL-6” value (LPS stimulated monocytes) was 21.0%. For the same molecule, the “% Monocyte cytokine decrease in presence of LPS/ConA, IL-13” value (LPS stimulated monocytes) was 65.5%, the “% Monocyte cytokine decrease in presence of LPS/ConA, TNFα” value (LPS stimulated monocytes) was 68.1% and the “Concentration of CCL5 in the absence of stimulation by LPS or ConA” value (from here on “Concentration of CCL5”) (CCL5 [9]; Canine Monocyte) was 442. For the same molecule, the “Concentration of CCL5” value (CCL5 [9]; Canine T-cells) was 290, the “% CCL5 production relative to that of LPS/ConA” value (CCL5 [9]; Canine/ConA Monocyte) was 81% and the “% CCL5 production relative to that of LPS/ConA” value (CCL5 [9]; Canine/ConA T-cells) was 26%. For the same molecule, the “Concentration of Monocyte cytokine IFNγ in absence of additional stimulant” value (monocytes [10]) was -310 pg/mL, the “Concentration of Monocyte cytokine IL-2 in absence of additional stimulant” value (monocytes [10]) was 86 pg/mL and the “Concentration of Monocyte cytokine IL-4 in absence of additional stimulant” value (monocytes [10]) was -241 pg/mL. The “Concentration of Monocyte cytokine IL-6 in absence of additional stimulant” value (monocytes [10]) was -113 pg/mL, the “Concentration of Monocyte cytokine IL-13 in absence of additional stimulant” value (monocytes [10]) was -25 pg/mL and the “Concentration of Monocyte cytokine TNFα in absence of additional stimulant” value (monocytes [10]) was -73 pg/mL. The MBIC [11] was 2 µg/mL, the MBIC [12] was 2 µg/mL and the MBIC (Streptococcus suis (Ss) [13]) was 4 µg/mL. The MBIC [14] was 8 µg/mL, the MBIC [15] was 2 µg/mL and the MBIC [16] was 2 µg/mL. For the same molecule, the MBIC [17] was 2 µg/mL, the MBIC (Histophilus somnus (Hs) [18]) was under 1 µg/mL and the MBIC [19] was 4 µg/mL. For the same molecule, the MBIC [20] was under 1 µg/mL, the MBIC [21] was 2 µg/mL and the “Concentration of CCL5” value (CCL5 [22]; Bovine Monocyte) was 825. The “Concentration of CCL5” value (CCL5 [22]; Bovine T-cells) was 195, the “% CCL5 production relative to that of LPS/ConA” value (CCL5 [22]; Bovine/LPS Monocyte) was 105% and the “% CCL5 production relative to that of LPS/ConA” value (CCL5 [22]; Bovine/LPS T-cells) was 79%. For the same molecule, the “% Cytokine decrease in the presence of LPS/ConA: IFNγ” value (T-lymphocytes [23]) was 60.2%, the “% Cytokine decrease in the presence of LPS/ConA: IL-2” value (T-lymphocytes [23]) was 62.3% and the “% Cytokine decrease in the presence of LPS/ConA: IL-4” value (T-lymphocytes [23]) was 65.5%. The “% Cytokine decrease in the presence of LPS/ConA: IL-6” value (T-lymphocytes [23]) was 24.8%, the “% Cytokine decrease in the presence of LPS/ConA: IL-13” value (T-lymphocytes [23]) was 48.2% and the “% Cytokine decrease in the presence of LPS/ConA: TNFα” value (T-lymphocytes [23]) was 7.1%. For the same molecule, the “% Monocyte cytokine decrease in presence of LPS/ConA, IFNγ” value [24] was 13.7%, the “% Monocyte cytokine decrease in presence of LPS/ConA, IL-2” value [24] was 38.9% and the “% Monocyte cytokine decrease in presence of LPS/ConA, IL-4” value [24] was 32.6%. For the same molecule, the “% Monocyte cytokine decrease in presence of LPS/ConA, IL-6” value [24] was 39.9%, the “% Monocyte cytokine decrease in presence of LPS/ConA, IL-13” value [24] was 36.5% and the “% Monocyte cytokine decrease in presence of LPS/ConA, TNFα” value [24] was 44.3%. The “MIC Bb” value [25] was 4 µg/mL (≈ 2.58 µM), the “MIC Se” value [26] was 2 µg/mL (≈ 1.29 µM) and the “MIC Ss” value (Streptococcus suis (Ss) [27]) was under 1 µg/mL. The “MIC Pa” value [28] was 4 µg/mL (≈ 2.58 µM), the “MIC Pm” value [29] was 8 µg/mL (≈ 5.16 µM) and the “MIC Su” value [30] was under 1 µg/mL. The “MIC Sd” value [31] was under 1 µg/mL, the “MIC Hs” value (Histophilus somnus (Hs) [32]) was 32 µg/mL (≈ 20.6 µM) and the “MIC Mh” value [33] was 8 µg/mL (≈ 5.16 µM). The “MIC Sp” value [34] was under 1 µg/mL and the “MIC Sa” value [35] was 2 µg/mL (≈ 1.29 µM).
